Assay results reported in PMC12040169 (PLOS Biology, 2025).

Assay: in vitro
Settings: human, hela cells, % viability

| Compound | viability at 28.5 h, 10 µM [%] |
| --- | --- |
| COc1cccc(Nc2cc(-c3ccc(CC(C)C)cc3)ncn2)c1 [CBK090745] | 110 |
| Oc1ccc(Nc2cc(-c3ccc(Cl)cc3)ncn2)cc1 [CBK090751] | 94.3 |
| CC(C)Cc1ccc(-c2cc(Nc3ccc(O)cc3)ncn2)cc1 [CBK090754] | 93.6 |
| COc1ccc(Nc2cc(-c3ccco3)ncn2)c(OC)c1 [CBK090761] | 105 |
| COc1ccc(-c2cc(Nc3ccc(OC)cc3OC)ncn2)cc1 [CBK090763] | 46.7 |
| Nc1cccc(-c2cc(Nc3ccc(CCO)cc3)ncn2)c1 [CBK090766] | 104 |
| OCCc1ccc(Nc2cc(-c3ccc4c(c3)OCO4)ncn2)cc1 [CBK090767] | 97.8 |
| OCCc1ccc(Nc2cc(-c3cc4ccccc4s3)ncn2)cc1 [CBK090770] | 103 |
| OCCc1ccc(Nc2cc(-c3ccco3)ncn2)cc1 [CBK090771] | 100 |
| COc1cc(C)c(Nc2cc(-c3cccc(N(C)C)c3)ncn2)cc1OC [CBK090780] | 43.5 |
| COc1cc(C)c(Nc2cc(-c3ccc(C(N)=O)cc3)ncn2)cc1OC [CBK090784] | 98.9 |
| COc1cc(C)c(Nc2cc(-c3ccc(F)c(F)c3)ncn2)cc1OC [CBK090787] | 73.4 |
| COCCNc1cc(-c2ccc(C(C)=O)s2)ncn1 [CBK090791] | 115 |
| COCCNc1cc(-c2ccc(SC)cc2)ncn1 [CBK090795] | 105 |
| COCCNc1cc(-c2ccc(Cl)cc2)ncn1 [CBK090797] | 96.3 |
| COCCNc1cc(-c2ccc(NC(C)=O)cc2)ncn1 [CBK090799] | 97.8 |
| COCCNc1cc(-c2ccc(F)c(F)c2)ncn1 [CBK090800] | 100 |
| CN(C)c1cccc(-c2cc(Nc3ccc4c(c3)OCCO4)ncn2)c1 [CBK090808] | 66.3 |
| COc1ccc(Nc2cc(-c3ccsc3)ncn2)cc1OC [CBK090820] | 97.2 |
| COc1ccc(Nc2cc(-c3ccco3)ncn2)cc1OC [CBK090822] | 99.5 |
| CCn1c2ccccc2c2cc(Nc3cc(-c4cccc5ccccc45)ncn3)ccc21 [CBK090834] | 50.6 |
| CCn1c2ccccc2c2cc(Nc3cc(-c4ccc(OC(F)(F)F)cc4)ncn3)ccc21 [CBK090842] | 87.3 |

| Compound | viability at 28.5 h, 10 µM [%] |
| --- | --- |
| c1nc(Nc2ccc3[nH]ccc3c2)cc(-c2ccc(N3CCOCC3)cc2)n1 [CBK090851] | 91.1 |
| c1ccc2cc(-c3cc(Nc4ccc5[nH]ccc5c4)ncn3)ccc2c1 [CBK090853] | 80.1 |
| FC(F)(F)c1cc(-c2cc(Nc3ccc4[nH]ccc4c3)ncn2)cc(C(F)(F)F)c1 [CBK090855] | 97.9 |
| c1ccc(COc2ccccc2-c2cc(Nc3ccc4[nH]ccc4c3)ncn2)cc1 [CBK090856] | 107 |
| c1ccc(COc2ccc(-c3cc(Nc4ccc5[nH]ccc5c4)ncn3)cc2)cc1 [CBK090857] | 111 |
| c1ccc2sc(-c3cc(Nc4ccc5[nH]ccc5c4)ncn3)cc2c1 [CBK090858] | 82.5 |
| O=[N+]([O-])c1cccc(-c2cc(Nc3ccc4[nH]ccc4c3)ncn2)c1 [CBK090860] | 108 |
| CN(C)c1ccccc1-c1cc(Nc2ccc(C(C)(C)C)cc2)ncn1 [CBK090872] | 95.4 |
| CCNc1cc(-c2ccc(N3CCOCC3)cc2)ncn1 [CBK090876] | 115 |
| CCNc1cc(-c2cccc(N(C)C)c2)ncn1 [CBK090878] | 97.8 |
| CCNc1cc(-c2ccc(Cl)cc2)ncn1 [CBK090880] | 99 |
| CCNc1cc(-c2cncc(OC)c2)ncn1 [CBK090881] | 101 |
| CCNc1cc(-c2ccc(OC)cc2)ncn1 [CBK090883] | 89 |
| CCNc1cc(-c2ccc(CC(C)C)cc2)ncn1 [CBK090884] | 102 |
| Nc1cccc(-c2cc(Nc3ccc(Cl)cc3)ncn2)c1 [CBK090886] | 91.7 |
| CCCCCOc1ccc(Nc2cc(-c3ccccc3N(C)C)ncn2)cc1 [CBK090890] | 81.9 |
| CCCCCOc1ccc(Nc2cc(-c3ccco3)ncn2)cc1 [CBK090892] | 92.6 |
| CN1CCN(c2ccc(-c3cc(NC4CCCCC4)ncn3)cn2)CC1 [CBK090899] | 96.7 |
| CN(C)c1cccc(-c2cc(NC3CCCCC3)ncn2)c1 [CBK090900] | 109 |
| Clc1ccc(-c2cc(NC3CCCCC3)ncn2)cc1 [CBK090902] | 101 |
| Nc1cccc(-c2cc(Nc3cccc(OCc4ccccc4)c3)ncn2)c1 [CBK090915] | 113 |
| c1ccc(Oc2ccc(Nc3cc(-c4ccc(N5CCOCC5)cc4)ncn3)cc2)cc1 [CBK090923] | 83.3 |

| Compound | viability at 28.5 h, 10 µM [%] |
| --- | --- |
| c1ccc(-c2cccc(-c3cc(Nc4ccc(N5CCOCC5)cc4)ncn3)c2)cc1 [CBK090930] | 90.2 |
| COc1cc(-c2cc(Nc3ccc(N(C)C)cc3)ncn2)cc(OC)c1OC [CBK090945] | 38.7 |
| CN(C)c1ccc(Nc2cc(-c3ccco3)ncn2)cc1 [CBK090946] | 90.3 |
| Cc1ccc(S(=O)(=O)Nc2ccc(Nc3cc(-c4ccc(CNC(=O)OC(C)(C)C)cc4)ncn3)cc2)cc1 [CBK090967] | 96.8 |
| Cc1ccc(S(=O)(=O)Nc2ccc(Nc3cc(-c4cccc5oc6ccccc6c45)ncn3)cc2)cc1 [CBK090977] | 91.1 |
| Cc1ccc(S(=O)(=O)Nc2ccc(Nc3cc(-c4cccc([N+](=O)[O-])c4)ncn3)cc2)cc1 [CBK090983] | 109 |
| COc1cncc(-c2cc(Nc3ccc(NS(=O)(=O)c4ccc(C)cc4)cc3)ncn2)c1 [CBK090988] | 94.1 |
| CCN(CCO)c1ccc(Nc2cc(-c3ccsc3)ncn2)cc1 [CBK091000] | 89.5 |
| CCN(CCO)c1ccc(Nc2cc(-c3cccc([N+](=O)[O-])c3)ncn2)cc1 [CBK091002] | 92.2 |
| CN(C)c1cccc(Nc2cc(-c3ccc(CCC(=O)O)cc3)ncn2)c1 [CBK091010] | 93.1 |
| CC(=O)Nc1ccc(-c2cc(Nc3cccc(N(C)C)c3)ncn2)cc1 [CBK091017] | 83.7 |
| COc1ccc(N2CCN(c3cc(-c4cc(C(F)(F)F)cc(C(F)(F)F)c4)ncn3)CC2)cc1OC [CBK091020] | 96.1 |
| COc1ccc(N2CCN(c3cc(-c4ccccc4OCc4ccccc4)ncn3)CC2)cc1OC [CBK091024] | 97.5 |
| COc1ccc(N2CCN(c3cc(-c4ccc(CCC(=O)O)cc4)ncn3)CC2)cc1OC [CBK091030] | 94.1 |
| COc1ccc(N2CCN(c3cc(-c4cccc([N+](=O)[O-])c4)ncn3)CC2)cc1OC [CBK091031] | 86.4 |
| COc1ccc(N2CCN(c3cc(-c4ccc(OC(F)(F)F)cc4)ncn3)CC2)cc1OC [CBK091032] | 94.1 |
| CC[C@@H]1CCCCN1C(=O)c1sc2nc(C(C)=O)ccc2c1Cl [CBK091036] | 88.1 |
| CC[C@H]1CCCCN1C(=O)c1sc2nc(C(C)=O)ccc2c1Cl [CBK091046] | 101 |
| Cc1cc(O)ccc1Nc1cc(-c2ccccc2N(C)C)ncn1 [CBK091051] | 104 |
| COc1cncc(-c2cc(Nc3ccc(O)cc3C)ncn2)c1 [CBK091061] | 103 |
| O=C(CN1CCN(c2cc(-c3ccc4ccccc4c3)ncn2)CC1)N1CCCC1 [CBK091064] | 104 |
| O=C(O)CCc1ccc(-c2cc(N3CCN(CC(=O)N4CCCC4)CC3)ncn2)cc1 [CBK091079] | 104 |

| Compound | viability at 28.5 h, 10 µM [%] |
| --- | --- |
| c1ccc(Oc2ccccc2-c2cc(N3CCN(c4ccccn4)CC3)ncn2)cc1 [CBK091083] | 91.5 |
| c1ccc(N2CCN(c3cc(-c4cc5ccccc5s4)ncn3)CC2)nc1 [CBK091084] | 102 |
| O=[N+]([O-])c1cccc(-c2cc(NCCc3ccccn3)ncn2)c1 [CBK091087] | 96.7 |
| Nc1ccc(C(=O)Nc2ccc(Nc3cc(-c4cc(C(F)(F)F)cc(C(F)(F)F)c4)ncn3)cc2)cc1 [CBK091091] | 94.8 |
| Nc1ccc(C(=O)Nc2ccc(Nc3cc(-c4ccccc4OCc4ccccc4)ncn3)cc2)cc1 [CBK091092] | 94.4 |
| O=C(c1ccco1)N1CCN(c2cc(-c3cccc4cccnc34)ncn2)CC1 [CBK091117] | 99.1 |
| COc1cncc(-c2cc(N3CCN(C(=O)c4ccco4)CC3)ncn2)c1 [CBK091121] | 97.4 |
| CN(C(=O)CN1CCN(c2cc(-c3ccsc3)ncn2)CC1)c1ccccc1 [CBK091129] | 99.7 |
| CN(C(=O)CN1CCN(c2cc(-c3cccc4oc5ccccc5c34)ncn2)CC1)c1ccccc1 [CBK091130] | 97.8 |
| CC(=O)Nc1cccc(-c2cc(N3CCN(CC(=O)N(C)c4ccccc4)CC3)ncn2)c1 [CBK091134] | 99.7 |
| CN(C(=O)CN1CCN(c2cc(-c3cccc([N+](=O)[O-])c3)ncn2)CC1)c1ccccc1 [CBK091137] | 103 |
| Cc1ccc(Nc2cc(-c3ccsc3)ncn2)cc1NS(C)(=O)=O [CBK091149] | 97.9 |
| Cc1ccc(Nc2cc(-c3cccc4oc5ccccc5c34)ncn2)cc1NS(C)(=O)=O [CBK091150] | 93.6 |
| COc1cncc(-c2cc(N3CCN(S(=O)(=O)c4ccc(Cl)cc4)CC3)ncn2)c1 [CBK091162] | 108 |
| CC(=O)c1ccc(-c2cc(N3CCN(CCN4CCCC4)CC3)ncn2)s1 [CBK091169] | 98.8 |
| COc1cc(CNc2cc(-c3ccco3)ncn2)cc(OC)c1OC [CBK091181] | 106 |
| COc1cncc(-c2cc(NCc3cc(OC)c(OC)c(OC)c3)ncn2)c1 [CBK091183] | 88.4 |
| COc1ccc(-c2cc(NCc3cc(OC)c(OC)c(OC)c3)ncn2)cc1 [CBK091184] | 90 |
| COc1cc(CNc2cc(-c3ccc(NC(C)=O)cc3)ncn2)cc(OC)c1OC [CBK091185] | 93.6 |
| N#CCc1ccc(Nc2cc(-c3cccc(N)c3)ncn2)cc1 [CBK091187] | 96.7 |
| CCN(CC)CCN1CCN(c2cc(-c3cc(C(F)(F)F)cc(C(F)(F)F)c3)ncn2)CC1 [CBK091195] | 94 |
